# Assay results published in patent US20250019387A1 (Frontier Medicines Corporation, priority 0001, published 2025).
# Target: KRAS G12C and cRAF (Ras-binding domain) interaction (Homo sapiens (Human), UniProt P01116, C118S/C51S/C80L/G12C)
# Test: Inhibition of KRAS G12C and cRAF binding (AlphaScreen)
# Settings: GMPPNP-loaded KRAS G12C, 19-20 hours incubation with compound; read-out: IC50 (Inhibition of KRAS G12C and cRAF Binding)
# Description: Compounds were diluted in 100% DMSO and each compound concentration was spotted at 200 nl/well onto low volume, white 384 well plates. […] Plates were incubated for 19-20 hours. A mixture of RBD and the AlphaScreen streptavidin donor and glutathione acceptor beads diluted in 25 mM Hepes, pH 7.4, 150 mM NaCl, 5 mM MgCl2, 0.01% TritonX-100 and 2% DMSO was then added at 10 ul/well and incubated for 60-90 minutes before the samples were read for emission at 570 nm after excitation of the donor beads at 680 nm. All incubations were performed at room temperature. […] IC50s were determined using nonlinear regression fit of [inhibitor]vs. response (4 parameters). […]
# KRAS G12C and cRAF (Ras-binding domain) interaction, sequence (P01116 other isoform, or with tags, fused parts or gaps G12C/C51S/C80L/C118S): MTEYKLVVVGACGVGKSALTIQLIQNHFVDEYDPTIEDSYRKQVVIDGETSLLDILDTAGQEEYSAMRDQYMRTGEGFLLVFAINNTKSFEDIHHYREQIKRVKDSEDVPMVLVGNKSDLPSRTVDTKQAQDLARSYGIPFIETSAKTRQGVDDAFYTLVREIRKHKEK
row,Structure (SMILES),IC50 [nM]
1,"CN(c1nc(OC[C@@]23CCCN2C[C@H](F)C3)nc2c1CCN(c1cccc3cccc(Cl)c13)C2)[C@@H]1CCN(C(=O)/C=C/c2nc(C3CC3)no2)C1 [Example 120, (E)-1-((R)-3-((7-(8-chloronaphthalen-1-yl)-2-(((2R,7aS)-2-fluorohexahydro-1H-pyrrolizin-7a-yl)methoxy)-5,6,7,8-tetrahydropyrido[3,4-d]pyrimidin-4-yl)(methyl)amino)pyrrolidin-1-yl)-3-(3-cyclopropyl-1,2,4-oxadiazol-5-yl)prop-2-en-1-one]",10 to 100
2,"Cc1cc(/C=C/C(=O)N2CC[C@@H](N(C)c3nc(OC[C@@]45CCCN4C[C@H](F)C5)nc4c(F)c(-c5cccc6cccc(Cl)c56)ncc34)C2)nc(C)n1 [Example 204, (E)-1-((R)-3-((7-(8-chloronaphthalen-1-yl)-8-fluoro-2-(((2R,7aS)-2-fluorohexahydro-1H-pyrrolizin-7a-yl)methoxy)pyrido[4,3-d]pyrimidin-4-yl)(methyl)amino)pyrrolidin-1-yl)-3-(2,6-dimethylpyrimidin-4-yl)prop-2-en-1-one]",100 to 500
3,"Cc1cc(/C=C/C(=O)N2CC(CN(C)c3nc(OC[C@@]45CCCN4C[C@H](F)C5)nc4c(F)c(-c5cccc6ccc(F)c(Cl)c56)ncc34)C2)nc(C)n1 [Example 273, (E)-1-(3-(((7-(8-chloro-7-fluoronaphthalen-1-yl)-8-fluoro-2-(((2R,7aS)-2-fluorotetrahydro-1H-pyrrolizin-7a(5H)-yl)methoxy)pyrido[4,3-d]pyrimidin-4-yl)(methyl)amino)methyl)azetidin-1-yl)-3-(2,6-dimethylpyrimidin-4-yl)prop-2-en-1-one]",100 to 500
4,"Cc1ncc(F)c(/C=C/C(=O)N2CC[C@@H](N(C)c3nc(OCC45CCCN4CCC5)nc4c(F)c(-c5cccc6ccc(F)c(Cl)c56)ncc34)C2)n1 [Example 244, (R,E)-1-(3-((7-(8-chloro-7-fluoronaphthalen-1-yl)-8-fluoro-2-((tetrahydro-1H-pyrrolizin-7a(5H)-yl)methoxy)pyrido[4,3-d]pyrimidin-4-yl)(methyl)amino)pyrrolidin-1-yl)-3-(5-fluoro-2-methylpyrimidin-4-yl)prop-2-en-1-one]",100 to 500
5,"Cc1cc(/C=C/C(=O)N2CC[C@@H](Nc3nc(OC[C@@]45CCCN4C[C@H](F)C5)nc4c(F)c(-c5cccc6ccc(F)c(F)c56)ncc34)C2)nc(C)n1 [Example 296, (E)-1-((R)-3-((7-(7,8-difluoronaphthalen-1-yl)-8-fluoro-2-(((2R,7aS)-2-fluorohexahydro-1H-pyrrolizin-7a-yl)methoxy)pyrido[4,3-d]pyrimidin-4-yl)amino)pyrrolidin-1-yl)-3-(2,6-dimethylpyrimidin-4-yl)prop-2-en-1-one]",10 to 100
6,"C=CC(=O)N1C[C@H](F)[C@@H](N(C)c2nc(OCC34CCCN3CCC4)nc3c(F)c(-c4cccc5ccc(F)c(Cl)c45)ncc23)C1 [Example 237, 1-((3S,4S)-3-((7-(8-chloro-7-fluoronaphthalen-1-yl)-8-fluoro-2-((tetrahydro-1H-pyrrolizin-7a(5H)-yl)methoxy)pyrido[4,3-d]pyrimidin-4-yl)(methyl)amino)-4-fluoropyrrolidin-1-yl)prop-2-en-1-one]",10 to 100
7,"C=CC(=O)N1CC(CN(C)c2nc(OC[C@@]34CCCN3C[C@H](F)C4)nc3c(F)c(-c4cccc5ccc(F)c(CC)c45)ncc23)C1 [Example 254, 1-(3-(((7-(8-ethyl-7-fluoronaphthalen-1-yl)-8-fluoro-2-(((2R,7aS)-2-fluorohexahydro-1H-pyrrolizin-7a-yl)methoxy)pyrido[4,3-d]pyrimidin-4-yl)(methyl)amino)methyl)azetidin-1-yl)prop-2-en-1-one]",10 to 100
8,"CN(c1nc(OC[C@@]23CCCN2C[C@H](F)C3)nc2c(F)c(-c3cccc4cccc(Cl)c34)ncc12)[C@@H]1CCN(C(=O)C=C2CCC2)C1 [Example 267, 1-((R)-3-((7-(8-chloronaphthalen-1-yl)-8-fluoro-2-(((2R,7aS)-2-fluorotetrahydro-1H-pyrrolizin-7a(5H)-yl)methoxy)pyrido[4,3-d]pyrimidin-4-yl)(methyl)amino)pyrrolidin-1-yl)-2-cyclobutylideneethan-1-one]",100 to 500
9,"CN(CC1CN(C(=O)/C=C/c2ccncn2)C1)c1nc(OC[C@@]23CCCN2C[C@H](F)C3)nc2c(F)c(-c3cccc4cccc(Cl)c34)ncc12 [Example 63, (E)-1-(3-(((7-(8-chloronaphthalen-1-yl)-8-fluoro-2-(((2R,7aS)-2-fluorotetrahydro-1H-pyrrolizin-7a(5H)-yl)methoxy)pyrido[4,3-d]pyrimidin-4-yl)(methyl)amino)methyl)azetidin-1-yl)-3-(pyrimidin-4-yl)prop-2-en-1-one]",10 to 100
10,"CN(CC1CN(C(=O)/C=C/c2nc(C(F)F)no2)C1)c1nc(OCC23CCCN2CCC3)nc2c1CCN(c1cccc3cccc(Cl)c13)C2 [Example 150, (E)-1-(3-(((7-(8-chloronaphthalen-1-yl)-2-((hexahydro-1H-pyrrolizin-7a-yl)methoxy)-5,6,7,8-tetrahydropyrido[3,4-d]pyrimidin-4-yl)(methyl)amino)methyl)azetidin-1-yl)-3-(3-(difluoromethyl)-1,2,4-oxadiazol-5-yl)prop-2-en-1-one]",< 10

# Same assay, conditions: additional exemplary compounds; KRAS G12C and cRAF binding; read-out: RAF1 RBD IC50
row,Structure (SMILES),IC50 [nM]
1,C=CC(=O)N1CC(CN(C)c2nc(OC[C@]34CCCN3C[C@@H](F)C4)nc3c(F)c(-c4cccc5cccc(Cl)c45)ncc23)C1,100 to 500
2,O=C(/C=C/CN1[C@@H]2CC[C@H]1COC2)N1CCN(c2nc(OC[C@@]34CCCN3C[C@H](F)C4)nc3c(F)c(-c4cccc5cccc(Cl)c45)ncc23)CC12CC2,> 500
3,CN(c1nc(OCC23CCCN2CCC3)nc2c(F)c(-c3cccc4ccc(F)c(Cl)c34)ncc12)[C@@H]1CCN(C#N)C1,10 to 100
4,C=CC(=O)N1CC[C@@H](N(C)c2nc(OCC34CCCN3CCC4)nc3c2CCN(c2cccc4ccc(F)c(Cl)c24)C3)C1,100 to 500
5,CN(C)C/C=C/C(=O)N1CC[C@@H](N(C)c2nc(OC[C@@H]3CCCN3C)nc3c(F)c(-c4cccc5ccc(F)c(Cl)c45)ncc23)C1,10 to 100
6,C=CC(=O)N1CCC(N(c2nc(OCC34CCCN3CCC4)nc3c2CCN(c2cccc4cccc(Cl)c24)C3)C2CC2)C1 (stereo not drawn),> 500
7,C=CC(=O)N1C[C@H](N(C)c2nc(OC[C@@]34CCCN3C[C@H](F)C4)nc3c2CCN(c2cccc4cccc(Cl)c24)C3)C[C@H]1CC#N,100 to 500
8,CN(C)C/C=C/S(=O)(=O)CCN(C)c1nc(OCC23CCCN2CCC3)nc2c1CCN(c1cccc3ccc(F)c(Cl)c13)C2,< 10
9,CN(CCS(=O)(=O)/C=C/CN1CC(F)(F)C1)c1nc(OC[C@@H]2CCCN2C)nc2c(F)c(-c3cccc4cccc(Cl)c34)ncc12,> 500
10,CN(c1nc(OCC23CCCN2CCC3)nc2c(F)c(-c3cccc4cccc(Cl)c34)ncc12)[C@@H]1CCN(C(=O)/C=C/c2ncn(C)n2)C1,> 500
11,Cc1nccc(/C=C/C(=O)N2CCC23CN(c2nc(OC[C@@]45CCCN4C[C@H](F)C5)nc4c(F)c(-c5cccc6cccc(Cl)c56)ncc24)C3)n1,> 500
